Measured values: article PMC6913630, “Novel benzofuran-based sulphonamides as selective carbonic anhydrases IX and XII inhibitors: synthesis and in vitro biological evaluation” (Journal of Enzyme Inhibition and Medicinal Chemistry, 2019)

Assays:
Assay in all cases: stopped-flow CO2 hydration
Format in all cases: biochemical
[1] = target: T1, hCA I (Homo sapiens, UniProt P00915)
T1 construct: gene CA1; not described; cytosolic isoform
Description: stopped-flow CO2 hydration on hCA I

[2] = target: T2, hCA II (Homo sapiens, UniProt P00918)
T2 construct: gene CA2; not described; cytosolic isoform
Description: stopped-flow CO2 hydration on hCA II

[3] = target: T3, hCA XII (Homo sapiens, UniProt O43570)
T3 construct: gene CA12; not described; transmembrane tumour-associated isoform
Description: stopped-flow CO2 hydration on hCA XII

[4] = target: T4, hCA IX (Homo sapiens, UniProt Q16790)
T4 construct: gene CA9; not described; transmembrane tumour-associated isoform
Description: stopped-flow CO2 hydration on hCA IX

T3 sequence (O43570 25-354): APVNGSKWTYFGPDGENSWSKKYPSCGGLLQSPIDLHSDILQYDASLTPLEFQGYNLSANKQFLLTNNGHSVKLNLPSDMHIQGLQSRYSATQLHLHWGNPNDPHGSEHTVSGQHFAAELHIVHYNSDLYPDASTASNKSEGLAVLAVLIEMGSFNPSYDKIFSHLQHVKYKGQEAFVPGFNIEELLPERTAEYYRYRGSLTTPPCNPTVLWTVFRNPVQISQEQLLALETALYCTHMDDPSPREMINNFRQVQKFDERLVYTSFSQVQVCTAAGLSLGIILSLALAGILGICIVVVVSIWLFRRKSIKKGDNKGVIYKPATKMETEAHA
T1 sequence (P00915 2-261): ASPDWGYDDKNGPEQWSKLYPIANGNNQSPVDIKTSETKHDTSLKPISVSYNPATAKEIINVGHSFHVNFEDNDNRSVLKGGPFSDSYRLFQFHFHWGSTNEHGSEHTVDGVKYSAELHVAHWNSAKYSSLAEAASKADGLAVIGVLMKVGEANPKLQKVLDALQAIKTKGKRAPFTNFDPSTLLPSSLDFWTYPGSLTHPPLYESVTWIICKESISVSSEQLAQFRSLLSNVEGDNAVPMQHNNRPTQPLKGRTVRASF

SMILES	Ki [1] [nM]	Ki [2] [nM]	Ki [3] [nM]	Ki [4] [nM]
CC(=NNc1ccc(S(N)(=O)=O)cc1)c1cc2ccccc2o1 [4a, 4–(2-(1-(Benzofuran-2-yl)ethylidene)hydrazineyl)benzenesulfonamide]	163	12.3	26.9	33.3
CC(=NNc1ccc(S(N)(=O)=O)cc1)c1cc2cc(Br)ccc2o1 [4b, 4–(2-(1–(5-Bromobenzofuran-2-yl)ethylidene)hydrazineyl)benzenesulfonamide]	92.7	73.5	38.8	48.4
CC(=NNC(=O)c1ccc(S(N)(=O)=O)cc1)c1cc2ccccc2o1 [5a, 4–(2-(1-(Benzofuran-2-yl)ethylidene)hydrazine-1-carbonyl)benzenesulfonamide]	37.4	33.6	10.1	60.4
CC(=NNC(=O)c1ccc(S(N)(=O)=O)cc1)c1cc2cc(Br)ccc2o1 [5b, 4–(2-(1–(5-Bromobenzofuran-2-yl)ethylidene)hydrazine-1-carbonyl)benzenesulfonamide]	63.9	44.2	32.5	27.7
Cc1ccc(S(=O)(=O)CC(=NNc2ccc(S(N)(=O)=O)cc2)c2cc3ccccc3o2)cc1 [9a, 4–(2-(1-(Benzofuran-2-yl)-2-tosylethylidene)hydrazineyl)benzenesulfonamide]	1290	644	49.7	32.8
NS(=O)(=O)c1ccc(NN=C(CS(=O)(=O)c2ccccc2)c2cc3cc(Br)ccc3o2)cc1 [9b, 4–(2-(1–(5-Bromobenzofuran-2-yl)-2-(phenylsulfonyl)ethylidene)hydrazineyl)benzenesulfonamide]	2160	888	33.4	44.6
Cc1ccc(S(=O)(=O)CC(=NNc2ccc(S(N)(=O)=O)cc2)c2cc3cc(Br)ccc3o2)cc1 [9c, 4–(2-(1–(5-Bromobenzofuran-2-yl)-2-tosylethylidene)hydrazineyl)benzenesulfonamide]	2500	571	16.7	10
NS(=O)(=O)c1ccc(C(=O)NN=C(CS(=O)(=O)c2ccccc2)c2cc3ccccc3o2)cc1 [10a, 4–(2-(1-(Benzofuran-2-yl)-2-(phenylsulfonyl)ethylidene)hydrazine-1-carbonyl)benzenesulfonamide]	4620	354	71.8	76.6
Cc1ccc(S(=O)(=O)CC(=NNC(=O)c2ccc(S(N)(=O)=O)cc2)c2cc3ccccc3o2)cc1 [10b, 4–(2-(1-(Benzofuran-2-yl)-2-tosylethylidene)hydrazine-1-carbonyl)benzenesulfonamide]	3920	229	38.9	51.1
NS(=O)(=O)c1ccc(C(=O)NN=C(CS(=O)(=O)c2ccccc2)c2cc3cc(Br)ccc3o2)cc1 [10c, 4–(2-(1–(5-Bromobenzofuran-2-yl)-2-(phenylsulfonyl)ethylidene)hydrazine-1-carbonyl)benzenesulfonamide]	1820	439	66.8	85.4
Cc1ccc(S(=O)(=O)CC(=NNC(=O)c2ccc(S(N)(=O)=O)cc2)c2cc3cc(Br)ccc3o2)cc1 [10d, 4–(2-(1–(5-Bromobenzofuran-2-yl)-2-tosylethylidene)hydrazine-1-carbonyl)benzenesulfonamide]	828	727	27.5	97.5
